Measured values from ChEMBL document CHEMBL1201862, “PubChem BioAssay data set” (2004).
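Step 1: Grow cells in 96-well plates. Step 2: Expose to compound for 48 hours at 5 concentrations. Step 3: Interpolate endpoints linearly; if unreached, use highest concentration. GI50 marks 50% less growth.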 Active and inactive are the calls of the source. No stated cut-off is given here; in the data, active = GI50 up to about 1.1 µM and inactive = higher.

Columns and labels:
Test in all cases: growth of human tumour cells (NCI), 48 h
SNB-19 = test system: SNB-19
SF-268 = test system: SF-268
SF-295 = test system: SF-295
OVCAR-5 = test system: OVCAR-5
ACHN = test system: ACHN
MCF7 = test system: MCF7
SK-OV-3 = test system: SK-OV-3
OVCAR-3 = test system: OVCAR-3
SR = test system: SR
A549 = test system: A549
RPMI-8226 = test system: RPMI-8226
Malme-3M = test system: Malme-3M
EKVX = test system: EKVX
OVCAR-4 = test system: OVCAR-4
SF-539 = test system: SF-539
KM12 = test system: KM12
UACC-257 = test system: UACC-257
U-251 = test system: U-251
SK-MEL-28 = test system: SK-MEL-28
MDA-MB-231 = test system: MDA-MB-231

Row | Compound | GI50 (SNB-19) | GI50 (SF-268) | GI50 (SF-295) | GI50 (OVCAR-5) | GI50 (ACHN) | GI50 (MCF7) | GI50 (SK-OV-3) | GI50 (OVCAR-3) | GI50 (SR) | GI50 (A549) | GI50 (RPMI-8226) | GI50 (Malme-3M) | GI50 (EKVX) | GI50 (OVCAR-4) | GI50 (SF-539) | GI50 (KM12) | GI50 (UACC-257) | GI50 (U-251) | GI50 (SK-MEL-28) | GI50 (MDA-MB-231)
1 | Cc1cnoc1NS(=O)(=O)c1ccc(Nc2nnc(/C=C/c3c(O)ccc4ccccc34)c(=O)n2N)cc1 | 65.2 µM (inactive) | 11.3 µM (inactive) | 64 µM (inactive) | 40.1 µM (inactive) | 22.2 µM (inactive) | 18.2 µM (inactive) | 56.1 µM (inactive) | 17.3 µM (inactive) | 21.8 µM (inactive) | 35.1 µM (inactive) | 20.2 µM (inactive) | 24 µM (inactive) | 35.9 µM (inactive) | 27.9 µM (inactive) | – | – | – | – | – | –
2 | [O-]c1c2c(nn1-c1ccccc1)c1ccccc1c[n+]2Cc1ccccc1 | > 100 µM (inactive) | 47.1 µM (inactive) | > 100 µM (inactive) | > 100 µM (inactive) | > 100 µM (inactive) | – | > 100 µM (inactive) | > 100 µM (inactive) | > 100 µM (inactive) | > 100 µM (inactive) | > 100 µM (inactive) | > 100 µM (inactive) | > 100 µM (inactive) | 78 µM (inactive) | > 100 µM (inactive) | > 100 µM (inactive) | > 100 µM (inactive) | > 100 µM (inactive) | > 100 µM (inactive) | –
3 | O=c1[nH]c(-n2[nH]c3c(c2=O)CCCC3)nc(O)c1-c1ccccc1 | > 100 µM (inactive) | > 100 µM (inactive) | > 100 µM (inactive) | > 100 µM (inactive) | > 100 µM (inactive) | – | > 100 µM (inactive) | – | > 100 µM (inactive) | – | > 100 µM (inactive) | > 100 µM (inactive) | > 100 µM (inactive) | > 100 µM (inactive) | – | > 100 µM (inactive) | > 100 µM (inactive) | > 100 µM (inactive) | > 100 µM (inactive) | > 100 µM (inactive)
4 | CCCCCCCCCc1cc(=O)c2c(O)cc(O)cc2o1 | 18.9 µM (inactive) | 3.82 µM (inactive) | 18.7 µM (inactive) | 16.6 µM (inactive) | 19 µM (inactive) | – | 17.1 µM (inactive) | 15.7 µM (inactive) | 15.2 µM (inactive) | 18.5 µM (inactive) | 5.86 µM (inactive) | 16.4 µM (inactive) | 18.7 µM (inactive) | 24.3 µM (inactive) | 17.3 µM (inactive) | 6.67 µM (inactive) | 19.7 µM (inactive) | 28.6 µM (inactive) | 19.2 µM (inactive) | > 100 µM (inactive)
5 | Cc1ccc2c(c1)c(=O)c1c(NCCN(C)C)ccc3nnn2c31 | 6.34 µM (inactive) | 4.24 µM (inactive) | 1.33 µM (inactive) | 2.59 µM (inactive) | 3.06 µM (inactive) | – | 3.56 µM (inactive) | 5.55 µM (inactive) | 1.22 µM (inactive) | 2.83 µM (inactive) | 2.36 µM (inactive) | 3.82 µM (inactive) | 3.64 µM (inactive) | 3.6 µM (inactive) | 5.26 µM (inactive) | 2.45 µM (inactive) | 3.6 µM (inactive) | 4.23 µM (inactive) | 5.42 µM (inactive) | –
6 | CC1(C)C2CCC(N)(C2)C1O (centres undefined) | > 100 µM (inactive) | – | > 100 µM (inactive) | > 100 µM (inactive) | > 100 µM (inactive) | > 100 µM (inactive) | > 100 µM (inactive) | > 100 µM (inactive) | > 100 µM (inactive) | > 100 µM (inactive) | > 100 µM (inactive) | – | > 100 µM (inactive) | > 100 µM (inactive) | – | > 100 µM (inactive) | > 100 µM (inactive) | > 100 µM (inactive) | > 100 µM (inactive) | –
7 | C[N+]1(CCNP(=S)(NCC[N+]2(C)Cc3c(ccc4c3OCO4)C3C2c2cc4c(cc2C[C@@H]3O)OCO4)NCC[N+]2(C)Cc3c(ccc4c3OCO4)C3C2c2cc4c(cc2C[C@@H]3O)OCO4)Cc2c(ccc3c2OCO3)C2C1c1cc3c(cc1C[C@H]2O)OCO3 (some centres undefined) | < 0.00191 µM (active) | < 0.00191 µM (active) | < 0.00191 µM (active) | < 0.00191 µM (active) | < 0.00191 µM (active) | – | < 0.00191 µM (active) | < 0.00191 µM (active) | < 0.00191 µM (active) | < 0.00191 µM (active) | < 0.00191 µM (active) | < 0.00191 µM (active) | < 0.00191 µM (active) | < 0.00191 µM (active) | < 0.00191 µM (active) | < 0.00191 µM (active) | < 0.00191 µM (active) | < 0.00191 µM (active) | < 0.00191 µM (active) | –
8 | Cc1ccc(N/C(=C(/C(Cl)=C(Cl)Cl)[N+](=O)[O-])n2nnc3ccccc32)cc1 | 18.3 µM (inactive) | 18.8 µM (inactive) | 20.1 µM (inactive) | 20.1 µM (inactive) | 21.4 µM (inactive) | 29.1 µM (inactive) | 17.1 µM (inactive) | 16.7 µM (inactive) | – | 19.5 µM (inactive) | 20.2 µM (inactive) | 16.1 µM (inactive) | 19.1 µM (inactive) | 18.7 µM (inactive) | 15.2 µM (inactive) | 21.2 µM (inactive) | 26 µM (inactive) | – | 17.5 µM (inactive) | –
9 | CC(N)Cc1cccc(C(F)(F)F)c1 (centres undefined) | > 100 µM (inactive) | > 100 µM (inactive) | > 100 µM (inactive) | > 100 µM (inactive) | > 100 µM (inactive) | – | > 100 µM (inactive) | > 100 µM (inactive) | > 100 µM (inactive) | > 100 µM (inactive) | > 100 µM (inactive) | > 100 µM (inactive) | > 100 µM (inactive) | > 100 µM (inactive) | > 100 µM (inactive) | > 100 µM (inactive) | > 100 µM (inactive) | > 100 µM (inactive) | > 100 µM (inactive) | –
10 | COc1cc2c(c(OC)c1OC)-c1ccc(SC)c(=O)cc1[C@@H](NCc1ccc(F)cc1)CC2 | < 0.0075 µM (active) | < 0.0075 µM (active) | < 0.0075 µM (active) | 2.54 µM (inactive) | < 0.0075 µM (active) | – | < 0.0075 µM (active) | < 0.0075 µM (active) | < 0.0075 µM (active) | < 0.0075 µM (active) | < 0.0075 µM (active) | < 0.0075 µM (active) | 0.0693 µM (active) | 11.6 µM (inactive) | < 0.0075 µM (active) | < 0.0075 µM (active) | 0.0117 µM (active) | < 0.0075 µM (active) | 8.77 µM (inactive) | –
11 | COC(=O)NC1(NC(=O)OC)NC(=O)c2cc(OC)c(OC)cc2N1 | 55.5 µM (inactive) | 78.7 µM (inactive) | 23.6 µM (inactive) | > 100 µM (inactive) | 64 µM (inactive) | 16.1 µM (inactive) | – | 21.2 µM (inactive) | 25.4 µM (inactive) | 61.8 µM (inactive) | 32.5 µM (inactive) | – | 89.3 µM (inactive) | – | 25.6 µM (inactive) | 35.8 µM (inactive) | 45 µM (inactive) | – | 29.3 µM (inactive) | –
12 | N#C/C(=C/NC(N)=S)C(N)=O | > 100 µM (inactive) | > 100 µM (inactive) | > 100 µM (inactive) | > 100 µM (inactive) | > 100 µM (inactive) | > 100 µM (inactive) | > 100 µM (inactive) | > 100 µM (inactive) | – | > 100 µM (inactive) | – | – | > 100 µM (inactive) | > 100 µM (inactive) | > 100 µM (inactive) | > 100 µM (inactive) | > 100 µM (inactive) | > 100 µM (inactive) | > 100 µM (inactive) | > 100 µM (inactive)
